Test system: mouse B16F10 melanoma cells
Test: melanin content and cell pellet color of mouse B16F10 melanoma cells cultured 6 days
Type: cell-based
Parameters: key to Vidjual color determination of cell pellet (score 5 black to 1 white, 0 not detectable): A Vidjual score of 5 means the cell pellet was black; A Vidjual score of 1 means the cell pellet was white; A Vidjual score of 0 means the cell pellet was not detectable, i.e. it has no color at all
Details: Sodium lactate positive control; for Vidjual color determination of cell pellet (score 5 black to 1 white, 0 not detectable): 25 mM or 50 mM level; for total melanin content per microgram of protein: added at either 25 mM or 50 mM level

## CC(O)C(=O)[O-].[Na+] (stereo not shown) [Positive Control, Sodium lactate]
Table row 0.5 v/v %
  Vidjual color determination of cell pellet (score 5 black to 1 white, 0 not detectable): 3
  total melanin content per microgram of protein: 0.240 micrograms per microgram of pr
Table row 1.0 v/v %
  Vidjual color determination of cell pellet (score 5 black to 1 white, 0 not detectable): 1
  total melanin content per microgram of protein: 0.107 micrograms per microgram of pr

Reference: patent publication US7097866B2, “Composition and method to whiten and exfoliate skin” (Desert Whale Jojoba Company, priority 2002, dated 2006)
